Counter-ions that a name gives are not always drawn. Like-named read-outs stand apart in the source and are kept apart here.
Columns and labels:
[1] = biological target: recombinant human arginase 1 (Homo sapiens, UniProt P05089); assay: Arginase inhibitory activity test, enzymatic assay based on urea measurement (Arg 1);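 further: enzyme incubated with L-arginine substrate and compound at 37 °C for 120 min, urea product detected colorimetrically by absorbance at 450 nm, background from wells lacking enzyme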
Experimental: (§1) An enzymatic assay with recombinant human arginases 1 or 2 was used to measure inhibitory activity of the compounds. The assay is based on urea measurement, which is a product of L-arginine enzymatic degradation.
(§2) Briefly, arginase and the substrate solution containing L-arginine were incubated in the absence or presence of varying concentrations of compounds at 37° C. for 120 min. For the background correction, only the substrate solution was added without arginase. The urea detection reagent from QuantiChrome™ Urea assay kit (BioAssay Systems, CA) was added to develop the color product. After 60 min at room temperature, the absorbance was measured at 450 nm with CLARIOstar (BMG LABTECH). Urea was used as the standard.

[2] = biological target: T1, recombinant human arginase 2 (Homo sapiens, UniProt P78540); assay: Arginase inhibitory activity test, enzymatic assay based on urea measurement (Arg 2); assay type: biochemical; details: 37° C. for 120 min, urea detection, read-out: Arg 2 enzymatic potency
T1 sequence (P78540 23-354): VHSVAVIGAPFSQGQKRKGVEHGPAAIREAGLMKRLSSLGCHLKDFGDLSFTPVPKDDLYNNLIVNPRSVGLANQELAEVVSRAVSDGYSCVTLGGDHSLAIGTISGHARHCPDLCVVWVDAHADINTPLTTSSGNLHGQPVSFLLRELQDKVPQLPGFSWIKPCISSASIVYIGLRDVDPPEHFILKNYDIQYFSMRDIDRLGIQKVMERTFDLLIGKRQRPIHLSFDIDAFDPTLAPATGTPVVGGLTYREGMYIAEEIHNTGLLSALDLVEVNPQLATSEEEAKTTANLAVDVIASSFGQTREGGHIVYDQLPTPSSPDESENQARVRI
Excerpt: Urea was used as the standard.

[3] = biological target: T2, recombinant human arginase 1 (Homo sapiens, UniProt P05089); assay: Arginase inhibitory activity test, enzymatic assay based on urea measurement (Arg 1); remark: listed apart in the source;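 further: enzyme incubated with L-arginine substrate and compound at 37 °C for 120 min, urea product detected colorimetrically by absorbance at 450 nm, background from wells lacking enzyme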
T2 sequence (P05089 1-322): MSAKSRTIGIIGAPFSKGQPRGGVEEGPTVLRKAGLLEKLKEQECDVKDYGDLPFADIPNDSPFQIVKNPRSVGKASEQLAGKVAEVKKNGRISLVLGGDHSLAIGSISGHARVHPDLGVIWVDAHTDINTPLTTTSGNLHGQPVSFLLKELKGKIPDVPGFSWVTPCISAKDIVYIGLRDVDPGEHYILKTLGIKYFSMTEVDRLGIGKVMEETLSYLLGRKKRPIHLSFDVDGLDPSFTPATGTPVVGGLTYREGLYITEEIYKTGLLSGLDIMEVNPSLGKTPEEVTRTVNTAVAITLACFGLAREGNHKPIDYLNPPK
Experimental: as §1, §2

Compound | IC50 [1] | IC50 [2] | IC50 [3] | IC50 ([3]; read-out: Arg 1 enzymatic potency, recombinant human arginase 1, 37° C. for 120 min, urea detection)
CN(C[C@H](N)C(F)F)S(=O)(=O)N1C[C@H](CCCB(O)O)[C@](N)(C(=O)O)C1 (racemic) | 100 to 1000 nM |  |  | 
N[C@@H](CNS(=O)(=O)N1C[C@H](CCCB(O)O)[C@](N)(C(=O)O)C1)C(F)F (racemic) | 100 to 1000 nM |  |  | 
Nc1c(N2C[C@H](CCCB(O)O)[C@](N)(C(=O)O)C2)c(=O)c1=O (racemic) [Example 3, (rac)trans-3-amino-1-(2-amino-3,4-dioxocyclobut-1-en-1-yl)-4-(3-boronopropyl)pyrrolidine-3-carboxylic acid, (1:1) 2,2,2-trifluoroacetic acid salt] |  | 100 to 1000 nM | 100 to 1000 nM | 
N[C@@]1(C(=O)O)CN(S(=O)(=O)Nc2ccccn2)C[C@@H]1CCCB(O)O (racemic) [Example 4, (rac)trans-3-amino-4-(3-boronopropyl)-1-(N-(pyridin-2-yl)sulfamoyl)pyrrolidine-3-carboxylic acid compound with 2,2,2-trifluoroacetic acid (1:2)] |  | 100 to 1000 nM | 100 to 1000 nM | 
N[C@@]1(C(=O)O)CN(S(=O)(=O)Nc2cc[nH]n2)C[C@@H]1CCCB(O)O (racemic) [Example 6, (rac)trans-1-(N-(1H-pyrazol-3-yl)sulfamoyl)-3-amino-4-(3-boronopropyl)pyrrolidine-3-carboxylic acid, (1:2) 2,2,2-trifluoroacetic acid salt] |  | 100 to 1000 nM | 100 to 1000 nM | 
N=C(N)N1C[C@H](CCCB(O)O)[C@](N)(C(=O)O)C1 (racemic) [Example 37, rac-(trans)-3-amino-4-(3-boronopropyl)-1-carbamimidoylpyrrolidine-3-carboxylic acid, 2,2,2-trifluoroacetic acid salt (1:2)] |  | 100 to 1000 nM | 100 to 1000 nM | 
CCN(CC1(N)CC1)S(=O)(=O)N1C[C@H](CCCB(O)O)[C@](N)(C(=O)O)C1 [Example 65, (3R,4S)-3-amino-1-(N-((1-aminocyclopropyl)methyl)-N-ethylsulfamoyl)-4-(3-boronopropyl)pyrrolidine-3-carboxylic acid, 2,2,2-trifluoroacetic acid salt (1:2)] |  |  | 1000 to 10000 nM | 
N[C@@]1(C(=O)O)CN(S(=O)(=O)N(CC2CC2)[C@H]2CCNC2)C[C@@H]1CCCB(O)O [Example 71, (3R,4S)-3-amino-4-(3-boronopropyl)-1-(N-(cyclopropylmethyl)-N-((S)-pyrrolidin-3-yl)sulfamoyl)pyrrolidine-3-carboxylic acid, 2,2,2-trifluoroacetic acid salt (1:2)] |  |  | < 100 nM | 
N[C@@]1(C(=O)O)CN(S(=O)(=O)N(CC2CC2)[C@H]2CCCNC2)C[C@@H]1CCCB(O)O [Example 72, (3R,4S)-3-amino-4-(3-boronopropyl)-1-(N-(cyclopropylmethyl)-N-((S)-piperidin-3-yl)sulfamoyl)pyrrolidine-3-carboxylic acid, 2,2,2-trifluoroacetic acid salt (1:2)] |  |  | < 100 nM | 
N[C@@]1(C(=O)O)CN(S(=O)(=O)N(CC2CC2)[C@@H]2CCCNC2)C[C@@H]1CCCB(O)O [Example 73, (3R,4S)-3-amino-4-(3-boronopropyl)-1-(N-(cyclopropylmethyl)-N-((R)-piperidin-3-yl)sulfamoyl)pyrrolidine-3-carboxylic acid, 2,2,2-trifluoroacetic acid salt (1:2)] |  |  | < 100 nM | 
N[C@@]1(C(=O)O)CN(S(=O)(=O)N(CC2CC2)C2CCNCC2)C[C@@H]1CCCB(O)O [Example 74, (3R,4S)-3-amino-4-(3-boronopropyl)-1-(N-(cyclopropylmethyl)-N-(piperidin-4-yl)sulfamoyl)pyrrolidine-3-carboxylic acid, 2,2,2-trifluoroacetic acid salt (1:2)] |  |  | < 100 nM | 
CCN(C1CNC1)S(=O)(=O)N1C[C@H](CCCB2O[C@H]3C[C@H]4C[C@H](C4(C)C)[C@@]3(C)O2)[C@](N)(C(=O)O)C1 [Example 75, (3R,4S)-3-amino-1-(N-(azetidin-3-yl)-N-ethylsulfamoyl)-4-(3-((3aR,4R,6R,7aS)-3a,5,5-trimethylhexahydro-4,6-methanobenzo[d][1,3,2]dioxaborol-2-yl)propyl)pyrrolidine-3-carboxylic acid] |  |  | < 100 nM | 
(rac)trans-3-amino-1-(N-((S)-2-aminopropyl)sulfamoyl)-4-(3-boronopropyl)pyrrolidine-3-carboxylic acid (diastereomers), 2,2,2-trifluoroacetic acid salt (1:2) [Example 18] |  |  |  | 100 to 1000 nM

Further lines, with some results ahead:

IC50 [1] | IC50 [2] | IC50 [3] | Compound | IC50 ([3]; read-out: Arg 1 enzymatic potency, recombinant human arginase 1, 37° C. for 120 min, urea detection)
 | 100 to 1000 nM | < 100 nM | N[C@@]1(C(=O)O)CN(S(N)(=O)=O)C[C@@H]1CCCB(O)O (racemic) [Example 1, (rac)trans-3-amino-4-(3-boronopropyl)-1-sulfamoylpyrrolidine-3-carboxylic acid, (1:1) 2,2,2-trifluoroacetic acid salt] | 
 | < 100 nM | < 100 nM | NCCNS(=O)(=O)N1C[C@H](CCCB(O)O)[C@](N)(C(=O)O)C1 (racemic) [Example 5, (rac)trans-3-amino-1-(N-(2-aminoethyl)sulfamoyl)-4-(3-boronopropyl)pyrrolidine-3-carboxylic acid compound with 2,2,2-trifluoroacetic acid (1:2)] | 
 | < 100 nM | < 100 nM | CC(C)(N)CNS(=O)(=O)N1C[C@H](CCCB(O)O)[C@](N)(C(=O)O)C1 (racemic) [Example 25, (rac)-trans-3-amino-1-(N-(2-amino-2-methylpropyl)sulfamoyl)-4-(3-boronopropyl)pyrrolidine-3-carboxylic acid, (1:2) 2,2,2-trifluoroacetic acid salt] | 
 | < 100 nM | < 100 nM | CC(C)(CN)NS(=O)(=O)N1C[C@H](CCCB(O)O)[C@](N)(C(=O)O)C1 (racemic) [Example 26, (rac)-trans-3-amino-1-(N-(1-amino-2-methylpropan-2-yl)sulfamoyl)-4-(3-boronopropyl)pyrrolidine-3-carboxylic acid, (1:2) 2,2,2-trifluoroacetic acid salt] | 
 | 100 to 1000 nM | < 100 nM | N[C@@]1(C(=O)O)CN(S(=O)(=O)N2CCNCC2)C[C@@H]1CCCB(O)O (racemic) [Example 30, (rac)-trans-3-amino-4-(3-boronopropyl)-1-(piperazin-1-ylsulfonyl)pyrrolidine-3-carboxylic acid, 2,2,2-trifluoroacetic acid salt (1:2)] | 
 | 100 to 1000 nM | < 100 nM | NCC1(NS(=O)(=O)N2C[C@H](CCCB(O)O)[C@](N)(C(=O)O)C2)COC1 (racemic) [Example 31] | 
 |  | < 100 nM | N[C@@]1(C(=O)O)CN(S(=O)(=O)N(c2ccccc2)C2CNC2)C[C@@H]1CCCB(O)O [Example 64, (3R,4S)-3-amino-1-(N-(azetidin-3-yl)-N-phenylsulfamoyl)-4-(3-boronopropyl)pyrrolidine-3-carboxylic acid, 2,2,2-trifluoroacetic acid salt (1:2)] | 
 |  | < 100 nM | N[C@@]1(C(=O)O)CN(S(=O)(=O)N(CC(F)(F)F)C2CNC2)C[C@@H]1CCCB(O)O [Example 66, (3R,4S)-3-amino-1-(N-(azetidin-3-yl)-N-(2,2,2-trifluoroethyl)sulfamoyl)-4-(3-boronopropyl)pyrrolidine-3-carboxylic acid, 2,2,2-trifluoroacetic acid salt (1:2)] | 
 |  | < 100 nM | NCCN(CC1CC1)S(=O)(=O)N1C[C@H](CCCB(O)O)[C@](N)(C(=O)O)C1 [Example 67, (3R,4S)-3-amino-1-(N-(2-aminoethyl)-N-(cyclopropylmethyl)sulfamoyl)-4-(3-boronopropyl)pyrrolidine-3-carboxylic acid, 2,2,2-trifluoroacetic acid salt (1:2)] | 
 |  | < 100 nM | NC1(CN(CC2CC2)S(=O)(=O)N2C[C@H](CCCB(O)O)[C@](N)(C(=O)O)C2)CC1 [Example 68, (3R,4S)-3-amino-1-(N-((1-aminocyclopropyl)methyl)-N-(cyclopropylmethyl)sulfamoyl)-4-(3-boronopropyl)pyrrolidine-3-carboxylic acid, 2,2,2-trifluoroacetic acid salt (1:2)] | 
 |  | < 100 nM | NC1CC1N(CC1CC1)S(=O)(=O)N1C[C@H](CCCB(O)O)[C@](N)(C(=O)O)C1 (stereo partly drawn) [Example 69, (3R,4S)-3-amino-1-(trans-N-(2-aminocyclopropyl)-N-(cyclopropylmethyl)sulfamoyl)-4-(3-boronopropyl)pyrrolidine-3-carboxylic acid, 2,2,2-trifluoroacetic acid salt (1:2)] | 
 |  | < 100 nM | N[C@@]1(C(=O)O)CN(S(=O)(=O)N(CC2CC2)[C@@H]2CCNC2)C[C@@H]1CCCB(O)O [Example 70, (3R,4S)-3-amino-4-(3-boronopropyl)-1-(N-(cyclopropylmethyl)-N-((R)-pyrrolidin-3-yl)sulfamoyl)pyrrolidine-3-carboxylic acid, 2,2,2-trifluoroacetic acid salt (1:2)] | 

Reference: patent US20220251116A1, “ALKYLBORONIC ACIDS AS ARGINASE INHIBITORS” (Guangdong Newopp Biopharmaceuticals Co., Ltd., priority 2019, published 2022)
